Data published in patent US20180002319A1, “MACROCYCLIC PICOLINAMIDE COMPOUNDS WITH FUNGICIDAL ACTIVITY” (DOW AGROSCIENCES LLC, priority 2014, published 2018).
Read-outs that look alike come from different tables or passages of the source.

Legend:
Zymoseptoria tritici = experiment: Leaf Blotch of Wheat (SEPTTR) fungicidal activity; format: in vivo; settings: wheat leaf blotch; for pest or weed control at 121.5 g/ha: Low Volume application, 121.5 g/H; for pest or weed control at 100 ppm: High Volume application
Procedure: Example A: Evaluation of Fungicidal Activity: Leaf Blotch of Wheat (Zymoseptoria tritici; Bayer Code […]) Technical grades of materials were dissolved in acetone, which were then mixed with nine volumes of H2O containing 110 ppm Triton X-100. The fungicide solutions were applied onto wheat seedlings using an automated booth sprayer to run-off. All sprayed plants were allowed to air dry prior to further handling. All fungicides were evaluated using the aforementioned method for their activity vs. all target diseases, unless stated otherwise. Wheat leaf blotch and brown rust activity were also evaluated using track spray applications, in which case the fungicides were formulated as EC formulations, containing 0.1% Trycol 5941 in the spray solutions. Wheat plants (variety Yuma) were grown from seed in a greenhouse in 50% mineral soil/50% soil-less Metro mix until the first leaf was fully emerged, with 7-10 seedlings per pot. These plants were inoculated with an aqueous spore suspension of Zymoseptoria tritici either prior to or after fungicide treatments. After inoculation the plants were kept in 100% relative humidity (one day in a dark dew chamber followed by two to three days in a lighted dew chamber at 20° C.) to permit spores to germinate and infect the leaf. The plants were then transferred to a greenhouse set at 20° C. for disease to develop. When disease symptoms were fully expressed on the 1st leaves of untreated plants, infection levels were assessed on a scale of 0 to 100 percent disease severity. Percent disease control was calculated using the ratio of disease severity on treated plants relative to untreated plants.

Puccinia triticina = experiment: Wheat Brown Rust (PUCCRT) fungicidal activity; format: in vivo; settings: for pest or weed control at 121.5 g/ha: Low Volume application, 121.5 g/H; for pest or weed control at 100 ppm: High Volume application
Procedure: Technical grades of materials were dissolved in acetone, which were then mixed with nine volumes of H2O containing 110 ppm Triton X-100. The fungicide solutions were applied onto wheat seedlings using an automated booth sprayer to run-off. All sprayed plants were allowed to air dry prior to further handling. All fungicides were evaluated using the aforementioned method for their activity vs. all target diseases, unless stated otherwise. Wheat leaf blotch and brown rust activity were also evaluated using track spray applications, in which case the fungicides were formulated as EC formulations, containing 0.1% Trycol 5941 in the spray solutions. Wheat plants (variety Yuma) were grown from seed in a greenhouse in 50% mineral soil/50% soil-less Metro mix until the first leaf was fully emerged, with 7-10 seedlings per pot. These plants were inoculated with an aqueous spore suspension of Zymoseptoria tritici either prior to or after fungicide treatments. After inoculation the plants were kept in 100% relative humidity (one day in a dark dew chamber followed by two to three days in a lighted dew chamber at 20° C.) to permit spores to germinate and infect the leaf. The plants were then transferred to a greenhouse set at 20° C. for disease to develop. When disease symptoms were fully expressed on the 1st leaves of untreated plants, infection levels were assessed on a scale of 0 to 100 percent disease severity. Percent disease control was calculated using the ratio of disease severity on treated plants relative to untreated plants. Example B: Evaluation of Fungicidal Activity: Wheat Brown Rust (Puccinia triticina; Bayer Code PUCCRT) Wheat plants (variety Yuma) were grown from seed in a greenhouse in 50% mineral soil/50% soil-less Metro mix until the first leaf was fully emerged, with 7-10 seedlings per pot. These plants were inoculated with an aqueous spore suspension of Puccinia triticina either prior to or after fungicide treatments. After inoculation the plants were kept in a dark dew room at 22° C. with 100% relative humidity overnight to permit spores to germinate and infect the leaf. The plants were then transferred to a greenhouse set at 24° C. for disease to develop. Fungicide formulation, application and disease assessment followed the procedures as described in the Example A.

[1] = 24 h, 1 day protectant, read-out: SEPTTR disease control, 1DP (1 Day Protectant)
[2] = 24 h, 1 day protectant, read-out: PUCCRT disease control, 1DP (1 Day Protectant)
[3] = 72 h, 3 day curative, read-out: PUCCRT disease control, 3DC (3 Day Curative)
[4] = 72 h, 3 day curative, read-out: SEPTTR disease control, 3DC (3 Day Curative)

Compound	pest or weed control at 121.5 g/ha (Zymoseptoria tritici; [1])	pest or weed control at 121.5 g/ha (Puccinia triticina; [2])	pest or weed control at 121.5 g/ha (Puccinia triticina; [3])	pest or weed control at 121.5 g/ha (Zymoseptoria tritici; [4])	pest or weed control at 100 ppm (Zymoseptoria tritici; [1])	pest or weed control at 100 ppm (Puccinia triticina; [2])	pest or weed control at 100 ppm (Puccinia triticina; [3])	pest or weed control at 100 ppm (Zymoseptoria tritici; [4])
COc1ccnc(C(=O)N[C@H]2CCCC[C@H](CC3CCCC3)[C@@H](OC)[C@H](C)OC2=O)c1OC(C)=O [Compound 59]	< 80%	> 80%	> 80%	–	–	–	–	–
COc1ccnc(C(=O)N[C@H]2CCCC[C@H](Cc3ccccc3)[C@@H](OC(=O)C(C)C)[C@H](C)OC2=O)c1OCOC(C)=O [Compound 60]	> 80%	> 80%	> 80%	> 80%	–	–	–	–
COc1ccnc(C(=O)N[C@H]2CCCC[C@H](CC3CCCC3)[C@@H](OC)[C@H](C)OC2=O)c1OCOC(C)=O [Compound 61]	< 80%	> 80%	> 80%	< 80%	–	–	–	–
COc1ccnc(C(=O)N[C@H]2CCCC[C@H](Cc3ccccc3)[C@@H](Oc3ccccc3)[C@H](C)OC2=O)c1OCOC(C)=O [Compound 62]	> 80%	> 80%	< 80%	> 80%	–	–	–	–
COc1ccnc(C(=O)N[C@H]2CCCC[C@H](Cc3ccccc3)[C@@H](Oc3ccccc3)[C@H](C)OC2=O)c1OC(C)=O [Compound 64]	> 80%	> 80%	< 80%	> 80%	–	–	–	–
COc1ccc(C[C@H]2CCOC[C@H](NC(=O)c3nccc(OC)c3OC(C)=O)C(=O)O[C@@H](C)[C@@H]2Oc2ccccc2)cc1 [Compound 65]	> 80%	> 80%	< 80%	< 80%	–	–	–	–
COc1ccc(C[C@H]2CCOC[C@H](NC(=O)c3nccc(OC)c3OCOC(C)=O)C(=O)O[C@@H](C)[C@@H]2Oc2ccccc2)cc1 [Compound 66]	> 80%	> 80%	< 80%	> 80%	–	–	–	–
COc1ccc(C[C@H]2CCOC[C@H](NC(=O)c3nccc(OC)c3OCOC(=O)C(C)C)C(=O)O[C@@H](C)[C@@H]2Oc2ccccc2)cc1 [Compound 67, ((4-methoxy-2-(((3S,8S,9R,10S)-8-(4-methoxybenzyl)-10-methyl-2-oxo-9-phenoxy-1,5-dioxecan-3-yl)carbamoyl)pyridin-3-yl)oxy)methyl isobutyrate]	> 80%	> 80%	< 80%	< 80%	–	–	–	–
COc1ccc(C[C@H]2CCOC[C@H](NC(=O)c3nccc(OC)c3OC(=O)C(C)C)C(=O)O[C@@H](C)[C@@H]2Oc2ccccc2)cc1 [Compound 68]	< 80%	> 80%	–	< 80%	–	–	–	–
CC[C@H]1CCOC[C@H](NC(=O)c2nccc(OC)c2OCOC(C)=O)C(=O)O[C@@H](C)[C@@H]1Oc1ccccc1 [Compound 69]	> 80%	> 80%	> 80%	> 80%	–	–	–	–
CC[C@H]1CCOC[C@H](NC(=O)c2nccc(OC)c2OCOC(C)=O)C(=O)O[C@@H](C)[C@@H]1OCC(C)C [Compound 70]	> 80%	> 80%	> 80%	< 80%	–	–	–	–
COc1ccnc(C(=O)N[C@H]2COCC[C@H](Cc3ccc(F)cc3)[C@@H](Oc3ccccc3)[C@H](C)OC2=O)c1OC(C)=O [Compound 71]	> 80%	> 80%	> 80%	> 80%	–	–	–	–
COc1ccnc(C(=O)N[C@H]2COCC[C@H](Cc3ccc(F)cc3)[C@@H](Oc3ccccc3)[C@H](C)OC2=O)c1OCOC(C)=O [Compound 72]	> 80%	> 80%	> 80%	> 80%	–	–	–	–
COc1ccnc(C(=O)N[C@H]2COCC[C@H](Cc3ccc(F)cc3)[C@@H](Oc3ccccc3)[C@H](C)OC2=O)c1OCOC(=O)C(C)C [Compound 73]	> 80%	> 80%	> 80%	> 80%	–	–	–	–
COc1ccnc(C(=O)N[C@H]2COCC[C@H](Cc3ccc(F)cc3)[C@@H](OCC3CC3)[C@H](C)OC2=O)c1OCOC(C)=O [Compound 74]	> 80%	> 80%	> 80%	< 80%	–	–	–	–
COc1ccnc(C(=O)N[C@H]2COCC[C@H](Cc3ccc(F)cc3)[C@@H](OC(=O)C(C)C)[C@H](C)OC2=O)c1OC(C)=O [Compound 75]	> 80%	> 80%	> 80%	< 80%	–	–	–	–
COc1ccnc(C(=O)N[C@H]2COCC[C@H](Cc3ccc(F)cc3)[C@@H](OC(=O)C(C)C)[C@H](C)OC2=O)c1OCOC(C)=O [Compound 76]	> 80%	> 80%	> 80%	> 80%	–	–	–	–
COc1ccnc(C(=O)N[C@H]2COCC[C@H](Cc3ccc(F)cc3)[C@@H](OCC3CC3)[C@H](C)OC2=O)c1OC(C)=O [Compound 77]	> 80%	> 80%	> 80%	< 80%	–	–	–	–
CCOCC(=O)OCOc1c(OC)ccnc1C(=O)N[C@H]1COCC[C@H](Cc2ccc(F)cc2)[C@@H](OCC2CC2)[C@H](C)OC1=O [Compound 78]	> 80%	> 80%	> 80%	< 80%	–	–	–	–
CC[C@H]1CCOC[C@H](NC(=O)c2nccc(OC)c2OCOC(C)=O)C(=O)O[C@@H](C)[C@@H]1OC(=O)C1CC1 [Compound 79]	> 80%	> 80%	> 80%	–	–	–	–	–
CC[C@H]1CCOC[C@H](NC(=O)c2nccc(OC)c2OC(C)=O)C(=O)O[C@@H](C)[C@@H]1OC(=O)c1ccccc1 [Compound 80]	> 80%	> 80%	> 80%	< 80%	–	–	–	–
COc1ccnc(C(=O)N[C@H]2COCC[C@H](OCc3ccccc3)[C@@H](OCc3ccccc3)[C@H](C)OC2=O)c1O [Compound 81]	–	–	–	–	> 80%	> 80%	> 80%	–
CCCCO[C@H]1CCOC[C@H](NC(=O)c2nccc(OC)c2O)C(=O)O[C@@H](C)[C@@H]1OCc1ccccc1 [Compound 82]	–	–	–	–	< 80%	> 80%	> 80%	> 80%
CCCCO[C@H]1CCOC[C@H](NC(=O)c2nccc(OC)c2O)C(=O)O[C@@H](C)[C@@H]1OC(=O)C(C)C [Compound 83]	–	–	–	–	< 80%	> 80%	> 80%	> 80%
